Reference: article PMC12785803, “Novel ACE-Inhibitory Peptides from Royal Jelly Proteins: Comprehensive Screening, Mechanistic Insights, and Endothelial Protection” (Foods, 2025)
No end group written: not given here.

What was measured:
endothelial cells [1] = details: 48 h of treatment; 129% in the Ang II group; cited from earlier work
Source text: All three concentrations produced highly similar su ...

endothelial cells [2] = test system: endothelial cells; parameters: method as in PMID 37501259; details: Ang II-treated endothelial cells, cited from earlier work
EA.hy926 cells [3] = test: MTT cytotoxicity assay; details: EA.hy926, 24 h, 0.0625 to 1 mg/mL; ISO 10993-5 limit: viability above 70%
Procedure: Cell culture. EA.hy926 endothelial cells were cultured in high-glucose Dulbecco’s Modified Eagle Medium (DMEM) supplemented with 10% fetal bovine serum (FBS) and 1% penicillin–streptomycin. Cells were maintained in a humidified incubator at 37 °C with 5% CO2. When cell confluence reached approximately 70–80%, subculturing was performed for subsequent experiments.
Cytotoxicity assay. The cytotoxicity of the peptides was evaluated using the MTT assay [29]. […] After incubation at 37 °C for 4 h, the supernatant was carefully removed, and 150 μL of DMSO was added to dissolve the formazan crystals. The plate was shaken for 10 min, and the absorbance was measured at 490 nm using a microplate reader.

EA.hy926 cells [4] = test: ET-1 level in Ang II-stimulated cells (ELISA); type: cell-based; details: captopril after Ang II; control 13.82, Ang II 15.65
Procedure: (§1) To evaluate the effect of the peptide on endothelial function, NO and ET-1 levels were measured in this study. Briefly, EA.hy926 cells were seeded in 6-well plates at a density of 4 × 10^5 cells/well and allowed to adhere overnight. After removing the medium, cells were incubated with 1 μmol/L Ang II for 12 h to induce endothelial dysfunction. Subsequently, the peptide solutions at different concentrations (0.1, 0.2, and 0.4 mg/mL) or the captopril solutions were added, and the cells were incubated for an additional 24 h. For the blank control group, the cells received no treatment. After incubation, the culture supernatants were collected and centrifuged to remove debris. Both NO and ET-1 contents in the supernatants were quantified using commercial kits according to the manufacturer’s protocols. NO content was determined using the Griess reaction (OD = 550 nm), and ET-1 levels were measured via enzyme-linked immunosorbent assay (ELISA) (OD = 450 nm). Absorbance values were recorded at the corresponding wavelengths using a microplate reader (Spark 10M, Tecan, Männedorf, Switzerland).

EA.hy926 cells [5] = test: SOD activity in H2O2-damaged cells; type: cell-based; details: captopril; vs H2O2 group
Procedure: (§2) The activities of SOD and GSH-Px were assessed as follows. EA.hy926 cells were seeded in 6-well plates at 4 × 10^5 cells per well and cultured overnight. After attachment, the cells were serum-starved in high-glucose DMEM containing 1% FBS for 12 h, and then treated for 24 h with peptide solutions at the indicated concentrations or with captopril. […] After treatment, the cells were washed with ice-cold PBS, lysed on ice, and centrifuged to collect the supernatants. SOD and GSH-Px activities were measured spectrophotometrically at 550 nm and 412 nm, respectively, using a microplate reader. Enzyme activities were calculated, normalized to total protein content, and expressed as U/mg protein.

EA.hy926 cells [6] = test: Wound healing assay (Ang II-induced migration); type: cell-based; details: captopril 0.2 mg/mL, Ang II-induced
Procedure: The effect of peptides on endothelial cell migration was evaluated using a wound healing assay. Briefly, EA.hy926 cells were seeded into 6-well plates and cultured at 37 °C in a humidified atmosphere containing 5% CO2. When the cells reached full confluence, they were treated with 1 μmol/L Ang II for 12 h to induce endothelial dysfunction. Subsequently, a straight scratch was created across the cell monolayer using a sterile 200 μL pipette tip. Detached cells were gently removed by rinsing with PBS, leaving a clear cell-free wound area. To minimize proliferation interference, cells were then incubated in high-glucose DMEM containing 1% FBS, supplemented with different concentrations of the peptides or captopril. Images of the same wound area were captured at 0 h, 6 h, and 24 h using a fluorescence microscope (Axio Observer, Zeiss, Jena, Germany), and the wound area was quantified using ImageJ software (version 1.54g).

EA.hy926 cells [7] = test: GSH-Px activity in H2O2-damaged cells; type: cell-based; details: captopril; vs H2O2 group
Procedure: as §2

EA.hy926 cells [8] = test: NO level in Ang II-stimulated cells (Griess); type: cell-based; details: captopril after Ang II; control 109.8, Ang II 58.95
Procedure: as §1

SPIH [soybean protein-derived peptide]
Endothelial wound healing (endothelial cells [1]): 92% | NO content (endothelial cells [2]; 31.4 ± 0.7 before): 43.7 ± 0.1 µmol/L | NO increase (endothelial cells [2]): 39.3%

PYPDWSFAK [PYPDWSFAK]
Cytotoxicity (EA.hy926 cells [3]): non-cytotoxic

C[C@H](CS)C(=O)N1CCC[C@H]1C(=O)O [captopril]
ET-1 content (EA.hy926 cells [4]): 12.70 ± 0.48 pg/mg prot | SOD improvement (EA.hy926 cells [5]): 70.9% | Migration rate (EA.hy926 cells [6]; 6 h, Ang II alone 42.44): 25.77 ± 2.49% | Migration rate (EA.hy926 cells [6]; 24 h, Ang II alone 89.68): 57.52 ± 1.92% | GSH-Px improvement (EA.hy926 cells [7]): 38.8% | NO level (EA.hy926 cells [8]): 97.86 ± 4.47 μmol/g prot
